In ChEMBL document CHEMBL1781881, “Adenosine-derived inhibitors of 78 kDa glucose regulated protein (Grp78) ATPase: insights into isoform selectivity” (J Med Chem, 2011):

Columns and labels:
[1] = Inhibition of HSP70 by fluorescence polarization assay
HCT-116 = assay: Antiproliferative activity against human HCT116 cells; assay type: functional

Ki [1] [nM] | GI50 (HCT-116) [nM] | SMILES
4320 |  | Nc1ncnc2c1nc(NCc1ccc3ccccc3n1)n2[C@@H]1O[C@H](CO)[C@@H](O)[C@H]1O
4070 |  | CNc1nc2c(N)ncnc2n1[C@@H]1O[C@H](COCC2CCCCC2)[C@@H](O)[C@H]1O
1440 |  | COC[C@H]1O[C@@H](n2c(NCc3ccc(Cl)c(Cl)c3)nc3c(N)ncnc32)[C@H](O)[C@@H]1O
4310 | 26000 | Nc1ncnc2c1nc(NCc1ccc(Cl)c(Cl)c1)n2[C@@H]1O[C@H](CO)[C@@H](O)[C@H]1O
1050 |  | Nc1ncnc2c1nc(NCc1ccc(Cl)c(Cl)c1)n2[C@@H]1O[C@H](COCc2ccccc2)[C@@H](O)[C@H]1O

The next lines start with the compound.

SMILES | Ki [1] [nM] | GI50 (HCT-116) [nM]
CNc1nc2c(N)ncnc2n1[C@@H]1O[C@H](COCc2ccccc2)[C@@H](O)[C@H]1O | 1100 | 
CNc1nc2c(N)ncnc2n1[C@@H]1O[C@H](COCc2cccnc2)[C@@H](O)[C@H]1O | 450 | 
CNc1nc2c(N)ncnc2n1[C@@H]1O[C@H](CO)[C@@H](O)[C@H]1O | 8300 | 
N#Cc1ccc(COC[C@H]2O[C@@H](n3c(NCc4ccc5ncccc5c4)nc4c(N)ncnc43)[C@H](O)[C@@H]2O)cc1 | 310 | > 80000
N#Cc1ccc(COC[C@H]2O[C@@H](n3c(NCc4ccc(Cl)c(Cl)c4)nc4c(N)ncnc43)[C@H](O)[C@@H]2O)cc1 | 120 | 5000
Nc1ncnc2c1nc(NCc1ccc3ncccc3c1)n2[C@@H]1O[C@H](CO)[C@@H](O)[C@H]1O | 1290 | > 80000
Nc1ncnc2c1nc(N)n2[C@@H]1O[C@H](CO)[C@@H](O)[C@H]1O | 4460 | 50
Nc1ncnc2c1ncn2[C@@H]1O[C@H](COP(=O)(O)OP(=O)(O)O)[C@@H](O)[C@H]1O [ADENOSINE DIPHOSPHATE] | 110 | 
